# Counter-ions that a name gives are not always drawn.
# Assays:
# [1] = target: T1, recombinant human 5-HT4 receptor (Homo sapiens, UniProt Q13639); assay: Determination of EC50 values for 5-HT4 receptor (CHO cells, pCRE-Luc reporter); format: cell-based; details: luciferase reporter, 4 hours incubation, read-out: 5-HT4 receptor agonistic binding in-vitro EC50
# T1 construct: expressed in transfected cells
# Description: A stable CHO cell line expressing recombinant human 5-HT4 receptor and pCRE-Luc reporter system was used for cell-based assay. The assay offers a non-radioactive based approach to determine binding of a compound to GPCRs. In this specific assay, the level of intracellular cyclic AMP, which is modulated by activation, or inhibition of the receptor is measured. The recombinant cells harbor luciferase reporter gene under the control of cAMP response element.
# The above cells were grown in 96 well clear bottom white plates in Hams F12 medium containing 10% fetal bovine serum (FBS). Prior to the addition of compounds or standard agonist, cells were serum starved overnight. Increasing concentrations of test compounds were added in OptiMEM medium to the cells. The incubation was continued at 37° C. in CO2 incubator for 4 hours. Medium was removed and cells were washed with phosphate buffered saline. The cells were lysed and luciferase activity was measured in a Luminometer. Luminescence units were plotted against the compound concentrations using Graphpad software. EC50 values of the compounds were defined as the concentration required in stimulating the luciferase activity by 50%.
# [2] = Rodent pharmacokinetic study; format: in vivo, Male wistar rats; details: male, Wistar, plasma, rat; for bioavailability: 3 mg/kg oral vs 1 mg/kg intravenous
# Description: Male wistar rats (225=25 grams) were used as experimental animals. Three to five animals were housed in each cage. Two days prior to dosing day, male wistar rats (225-250 grams) were anesthetized with isoflurane for surgical placement of jugular vein catheter. Animals were fasted over night before oral dosing (p.o) and food pellets were allowed 2 hours post dosing, whereas during intravenous dosing food and water were provided as ad libitum. Three rats were dosed with compounds of formula (I) (3 mg/kg) orally and intravenously (1 mg/kg).
# At each time point blood was collected through jugular vein and immediately replenish with an equivalent volume of normal saline from freely moving rats. Collected blood was transferred into a labeled eppendr off containing 10 μL of heparin as anticoagulant. Typically blood samples were collected as following time points: Pre dose, 0.08 (only i.v.), 0.25, 0.5, 1, 2, 4, 6, 8, and 24 hours post
# dose (n=3). Blood was centrifuged at 4000 rpm for 10 minutes. Plasma was prepared and stored frozen at −20° C. until analysis. The concentrations of the compounds of formula (I) were quantified in plasma by qualified LC-MS/MS method using suitable extraction technique. The compounds of formula (I) were quantified in the calibration range around 2-2000 ng/mL in plasma. Study samples were analyzed using calibration samples in the batch and quality control samples spread across the batch.
# Pharmacokinetic parameters Cmax, Tmax, AUCt, T1/2 and Bioavailability were calculated by non-compartmental model using standard non-compartmental model by using WinNonLin 5.0.1 or Phoenix WinNonlin 6.2 version Software package.
# [3] = Rodent brain penetration study; format: in vivo, Male Wistar rats; details: male, Wistar, brain and plasma; rat, 3 mg/kg oral (gavage); read-out: Single dose Brain Penetration (Cb/Cp)
# Description: Male Wistar rats (225±25 grams) were used as experimental animals. Three animals were housed in each cage. Animals were given water and food ad libitum throughout the experiment and maintained on a 12 hours light/dark cycle.
# Brain penetration was determined in discrete manner in rats. One day prior to dosing day, male wistar rats (225-250 grams) were acclimatized. After acclimatization the rats were grouped according to their weight. In each group, 3 animals were kept in individual cage and allowed free access to food and water. At each time point (0.50, 1, and 2 hours) n=3 animals were used.
# The compounds of formula (I) were suitably preformulated and administered orally at (free base equivalent) 3 mg/kg. Blood samples were removed via, cardiac puncture by using isoflurane anesthesia. The animals were sacrificed to collect brain tissue. Plasma was separated and brain samples were homogenized and stored frozen at −20° C. until analysis. The concentrations of the compounds of formula (I) in plasma and brain were determined using LC-MS/MS method.
# The compounds of formula (I) were quantified in plasma and brain homogenate by qualified LC-MS/MS method using suitable extraction technique. The compounds of formula (I) were quantified in the calibration range of 1-500 ng/mL in plasma and brain homogenate. Study samples were analyzed using calibration samples in the batch and quality control samples spread across the batch. Extent of brain-plasma ratio was calculated (Cb/Cp).
# Male Wistar rats = assay: Object recognition task model; format: in vivo; details: rat, p.o.
# Description: The cognition enhancing properties of compounds of this invention were estimated by using this model.
# Male Wistar rats (230-280 grams) were used as experimental animals. Four animals were housed in each cage. Animals were kept on 20% food deprivation before one day and given water ad libitum throughout the experiment and maintained on a 12 hours light/dark cycle. Also the rats were habituated to individual arenas for 1 hour in the absence of any objects.
# One group of 12 rats received vehicle (1 mL/Kg) orally and another set of animals received compound of the formula (I) either orally or i.p., before one hour of the familiar (T1) and choice trial (T2).
# The experiment was carried out in a 50×50×50 cm open field made up of acrylic. In the familiarization phase, (T1), the rats were placed individually in the open field for 3 minutes, in which two identical objects (plastic bottles, 12.5 cm height×5.5 cm diameter) covered in yellow masking tape alone (a1 and a2) were positioned in two adjacent corners, 10 cms from the walls. After 24 hours of the (T1) trial for long-term memory test, the same rats were placed in the same arena as they were placed in T1 trial. Choice phase (T2) rats were allowed to explore the open field for 3 minutes in presence of one familiar object (a3) and one novel object (b) (Amber color glass bottle, 12 cm high and 5 cm in diameter). Familiar objects presented similar textures, colors and sizes. During the T1 and T2 trial, explorations of each object (defined as sniffing, licking, chewing or having moving vibrissae whilst directing the nose towards the object at a distance of less than 1 cm) were recorded separately by stopwatch. Sitting on an object was not regarded as exploratory activity, however, it was rarely observed.
# T1 is the total time spent exploring the familiar objects (a1+a2).
# T2 is the total time spent exploring the familiar object and novel object (a3+b).
# The object recognition test was performed as described by Behaviour Brain Research, 31 (1988), 47-59.
# [4] = test system: Scopolamine Induced amnesia; assay: Radial arm maze; format: in vivo, rats; details: p.o.
# Excerpt: The cognition enhancing properties of compounds of formula (I) of this invention were estimated by using this model. Radial arm maze consists of a central hub of 45 cm diameter. Each arm was of dimension 42.5×15×24 cm. The maze was elevated to a height of 1 m above the ground. The animals were placed on a restricted diet until they reached approximately 85% of their free feeding weight. During this diet restriction period animals were habituated to the novel feed (pellets). Once the rats reached approximately 85% of their free feeding weight rats were habituated to the maze on the 1^St and 2nd day. […] Animals were randomized on day 2. On the subsequent days the treatment was given as per the allotment. Each animal was introduced into the maze individually for a period of 10 minutes. The arms were baited only once and the animal had to learn the rule that repeated arm entries would not be rewarded. The trial ended once the rat had visited 16 arms or 10 minutes were over or all the pellets were eaten. The arm entries were recorded using the software. Once the trial was over the rat was removed and the maze was cleaned using soap water.
# sAPPα = assay: Estimation of mice brain cortical sAPPα levels (ELISA); format: in vivo; details: 0.1 and 10 mg/kg s.c., single injection, 60 minutes
# Description: 1. […] 2. […] 3. […] 4. […] 5. […] Statistical analyses were performed using the Graph Pad Prism (Version 4). […] Values were compared between the different groups by using unpaired t test.
# T1 sequence (Q13639 whole entry): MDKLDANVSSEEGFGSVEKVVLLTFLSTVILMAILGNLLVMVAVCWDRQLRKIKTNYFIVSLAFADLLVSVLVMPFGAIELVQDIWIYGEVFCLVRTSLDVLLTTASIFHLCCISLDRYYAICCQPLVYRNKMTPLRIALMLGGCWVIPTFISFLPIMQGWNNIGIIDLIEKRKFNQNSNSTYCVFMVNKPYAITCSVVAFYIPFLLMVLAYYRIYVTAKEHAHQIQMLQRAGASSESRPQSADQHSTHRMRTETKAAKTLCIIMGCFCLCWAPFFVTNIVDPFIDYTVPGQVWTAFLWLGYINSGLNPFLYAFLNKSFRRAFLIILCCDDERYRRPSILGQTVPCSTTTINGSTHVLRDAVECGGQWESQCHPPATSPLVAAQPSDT
Compound,EC50 [1] [nM],AUC(0-t) ([2]; 1 mg/kg intravenous (bolus)) [ng·h/mL],half-life ([2]; 1 mg/kg intravenous (bolus)) [min],AUC(0-t) ([2]; 3 mg/kg oral (gavage)) [ng·h/mL],Cmax ([2]; 3 mg/kg oral (gavage)) [ng/mL],Tmax ([2]; 3 mg/kg oral (gavage)) [min],half-life ([2]; 3 mg/kg oral (gavage)) [min],bioavailability [2] [%],Kp [3],further results
"COCCCN1CC2C(CNC(=O)c3cccc4cn(C(C)C)nc34)C2C1.O=C(O)C(=O)O (centres unmarked) [Example 3, N—[N-(3-methoxypropyl)-3-azabicyclo[3.1.0]hexane-6-ylmethyl]-2-isopropyl-2H-indazole-7-carboxamide oxalate]",1.1 to 5,397 ± 28,54 ± 6,560 ± 117,467 ± 37,19.8 ± 8.4,48 ± 6,47 ± 10,0.96 ± 0.12,"Exploration time mean ± S.E.M, Familiar object (Male Wistar rats; 1 mg/kg): 5.67 ± 1.15 s; Exploration time mean ± S.E.M, Novel object (Male Wistar rats; 1 mg/kg): 14.26 ± 1.64 s; Inference (Male Wistar rats; 1 mg/kg): Active; Reversal of Scopolamine Induced amnesia - Effective dose range [4]: 3 mg/kg, p.o.; increase of mice brain cortical sAPPα levels in comparison with control group (sAPPα): 25-30%"
"CC(C)n1cc2cccc(C(=O)NCC3C4CN(CC(C)(C)O)CC34)c2n1 (stereo not drawn) [Example 36, N—[N-(2-hydroxy-2-methylpropyl)-3-azabicyclo[3.1.0]hexane-6-ylmethyl]-2-isopropyl-2H-indazole-7-carboxamide L(+) Tartarate]",5.1 to 20,,,,,,,,,
"CC(C)n1cc2cccc(C(=O)NC3CCN(CC4CCC4)CC3)c2n1 [Example 21, N—(N-cyclobutylmethylpiperidine-4-yl)-2-isopropyl-2H-indazole-7-carboxamide fumarate]",5.1 to 20,,,,,,,,,
"CC(C)n1cc2cccc(C(=O)NCC3(O)CCN(CC4CCOCC4)CC3)c2n1 [Example 26, N—[(N-tetrahydropyran-4-ylmethyl)-4-hydroxypiperidin-4-ylmethyl]-2-isopropyl-2H-indazole-7-carboxamide fumarate]",1.1 to 5,,,,,,,,,
"CC(C)n1cc2cccc(C(=O)NC3CCN(CC4CC4)CC3)c2n1 [Example 20, N—(N-cyclopropylmethylpiperidine-4-yl)-2-isopropyl-2H-indazole-7-carboxamide fumarate]",5.1 to 20,,,,,,,,,
"CC(C)n1cc2cccc(C(=O)NCC3(F)CCN(CC4CCOCC4)CC3)c2n1 [Example 22, N—[(N-tetrahydropyran-4-ylmethyl)-4-fluoropiperidin-4-ylmethyl]-2-isopropyl-2H-indazole-7-carboxamide]",1.1 to 5,,,,,,,,,
"COC(C)(C)CN1CCC(CNC(=O)c2cccc3cn(C(C)C)nc23)CC1 [Example 33, N—[N-(2-Methoxy-2-methylpropyl)piperidin-4-ylmethyl]-2-isopropyl-2H-indazole-7-carboxamide]",≤ 1,,,,,,,,,

# More lines, main results first:
EC50 [1] [nM],AUC(0-t) ([2]; 1 mg/kg intravenous (bolus)) [ng·h/mL],half-life ([2]; 1 mg/kg intravenous (bolus)) [min],AUC(0-t) ([2]; 3 mg/kg oral (gavage)) [ng·h/mL],Cmax ([2]; 3 mg/kg oral (gavage)) [ng/mL],Tmax ([2]; 3 mg/kg oral (gavage)) [min],half-life ([2]; 3 mg/kg oral (gavage)) [min],bioavailability [2] [%],Kp [3],Compound,further results
≤ 1,287 ± 40,66 ± 6,212 ± 46,107 ± 22,25.2 ± 8.4,90,25 ± 5,0.98 ± 0.34,"CC(C)n1cc2cccc(C(=O)NCC3CCN(CC4CCOCC4)CC3)c2n1 [Example 1, N—[(N-tetrahydropyran-4-ylmethyl)piperidin-4-ylmethyl]-2-isopropyl-2H-indazole-7-carboxamide fumarate]","Exploration time mean ± S.E.M, Familiar object (Male Wistar rats; 1 mg/kg): 8.51 ± 1.35 s; Exploration time mean ± S.E.M, Novel object (Male Wistar rats; 1 mg/kg): 15.51 ± 1.37 s; Inference (Male Wistar rats; 1 mg/kg): Active"
≤ 1,281 ± 6,72 ± 6,155 ± 3,110 ± 8,30,48,18,0.52 ± 0.08,"CC(C)n1cc2cccc(C(=O)NCC3CCN(CC(C)(C)O)CC3)c2n1.O=C(O)C(O)C(O)C(=O)O [Example 32, N—[N-(2-hydroxy-2-methylpropyl)piperidin-4-ylmethyl]-2-isopropyl-2H-indazole-7-carboxamide L(+) Tartarate]","Exploration time mean ± S.E.M, Familiar object (Male Wistar rats; 0.3 mg/kg): 7.79 ± 1.27 s; Exploration time mean ± S.E.M, Novel object (Male Wistar rats; 0.3 mg/kg): 17.98 ± 2.41 s; Inference (Male Wistar rats; 0.3 mg/kg): Active; Reversal of Scopolamine Induced amnesia - Effective dose range [4]: 0.3 mg/kg, p.o."
≤ 1,145 ± 18,102 ± 30,190 ± 43,223 ± 118,19.8 ± 8.4,66 ± 36,44 ± 10,1 ± 0.15,"CCn1cc2cccc(C(=O)NCC3CCN(CC4CCOCC4)CC3)c2n1.O=C(O)/C=C/C(=O)O [Example 2, N—[(N-tetrahydropyran-4-ylmethyl)piperidin-4-ylmethyl]-2-ethyl-2H-indazole-7-carboxamide fumarate]","Exploration time mean ± S.E.M, Familiar object (Male Wistar rats; 0.3 mg/kg): 7.21 ± 1.99 s; Exploration time mean ± S.E.M, Novel object (Male Wistar rats; 0.3 mg/kg): 13.10 ± 1.78 s; Inference (Male Wistar rats; 0.3 mg/kg): Active; Reversal of Scopolamine Induced amnesia - Effective dose range [4]: 0.3 mg/kg, p.o."
≤ 1,,,,,,,,,"CC(C)n1cc2cccc(C(=O)NCC3CCN(CC4(O)CCCC4)CC3)c2n1 [Example 11, N—[N-(1-hydroxycyclopentylmethyl)piperidin-4-ylmethyl]-2-isopropyl-2H-indazole-7-carboxamide L(+) tartarate]",
